Where two headings read alike, the source gives them in different places.
Columns and labels:
[1] = Dynamic solubility in water and FaSSIF at 37° C.; assay type: physicochemical; details: for solubility at 1 h / solubility at 2 h / solubility at 4 h / solubility at 24 h: thermodynamic from solid, read-out: S: Solubility
[2] = Solid-state stability, 14 days, HPLC; assay type: physicochemical
Protocol: Compound A salts and Compound A were tested for their solid-state stability under the conditions of 25° C./60% RH and 40° C./75% RH.

[3] = Hygroscopicity by dynamic moisture adsorption (DVS); assay type: physicochemical; details: for Hygroscopicity: 25° C./80% RH, succinate
Protocol: Dynamic moisture adsorption (DVS) was used to evaluate the hygroscopicity of compound A and salt forms under the condition of 25° C. and 80% RH.

[4] = test system: U-87MG; assay: Thymidine incorporation (3H-TdR) anti-proliferative assay, U-87MG; assay type: cell-based; details: Homo sapiens, Brain tumor
Protocol: (§1) The thymidine incorporation (3H-TdR) assay was used to assess the anti-proliferative effect of the Compound A succinate on tumor cell lines. The cells were treated with a series of concentrations of Compound A succinate for 24 hours; 3H-TdR was added, and the cells were continued in the incubator for further 48 hours. Scintillation fluid was added, read on a liquid scintillation counter, and the inhibiting cell growth by 50% (IC50) was calculated as shown in Table 5.

[5] = test system: COLO-205; assay: Thymidine incorporation (3H-TdR) anti-proliferative assay, COLO-205; assay type: cell-based; details: Homo sapiens; COLO-205, Colon cancer
Protocol: as §1

[6] = test system: SK-OV-3; assay: Thymidine incorporation (3H-TdR) anti-proliferative assay, SK-OV-3; assay type: cell-based; details: Homo sapiens; SK-OV-3, Ovarian cancer
Protocol: as §1

[7] = test system: ZR-75-1; assay: Thymidine incorporation (3H-TdR) anti-proliferative assay, ZR-75-1; assay type: cell-based; details: Homo sapiens; ZR-75-1, Breast cancer
Protocol: as §1

[8] = test system: MDA-MB-435S; assay: Thymidine incorporation (3H-TdR) anti-proliferative assay, MDA-MB-435S; assay type: cell-based; details: Homo sapiens, Breast cancer
Protocol: as §1

[9] = test system: PANC-1; assay: Thymidine incorporation (3H-TdR) anti-proliferative assay, PANC-1; assay type: cell-based; details: Homo sapiens; PANC-1, Pancreatic cancer
Protocol: as §1

[10] = test system: Raji; assay: Thymidine incorporation (3H-TdR) anti-proliferative assay, Raji; assay type: cell-based; details: Homo sapiens, Lymphoma
Protocol: as §1

[11] = test system: MOLM-13; assay: Thymidine incorporation (3H-TdR) anti-proliferative assay, MOLM-13; assay type: cell-based; details: Homo sapiens; MOLM-13, Leukemia
Protocol: as §1

[12] = test system: MV-4-11; assay: Thymidine incorporation (3H-TdR) anti-proliferative assay, MV-4-11; assay type: cell-based; details: Homo sapiens, MV4-11; MV-4-11, Leukemia
Protocol: as §1

[13] = test system: PC-3; assay: Thymidine incorporation (3H-TdR) anti-proliferative assay, PC-3; assay type: cell-based; details: Homo sapiens; PC-3, Prostate cancer
Protocol: as §1

[14] = test system: A2780 ovarian cancer cells; assay: Subcutaneous A2780 ovarian cancer xenograft; assay type: in vivo, female BALB/c nude mice; details: for Tumor volume (±S): 14 days; for Mean tumor growth inhibition (T/C): day 14
Protocol: Compound A succinate was also assessed for in vivo anti-tumor activity in subcutaneous xenografts. Briefly, female BALB/c nude mice were inoculated with A2780 ovarian cancer cells; when the mean tumour volume reached 150-200 mm^3, animals were randomized to groups. The animals (n=8 per group) were treated orally with vehicle (ultra-pure water), Compound A succinate (62.5, 125 or 250 mg/kg), or Palbociclib (75 mg/kg) once a day for 14 consecutive days. Mice were observed daily for signs of toxicity and weight loss, and tumour volume measured every other day. […] Palbociclib was efficacious at 75 mg/kg, resulting in T/C of 42.8% (Table 6).

[15] = test system: COLO 205 colorectal tumor xenograft; assay: COLO 205 colorectal tumor xenograft; assay type: in vivo, mice; details: for Tumor volume (±S): 21 days; for Inhibition of tumor growth (T/C): day 21, succinate
Protocol: A separate study of Compound A succinate was conducted in COLO 205 colorectal tumor xenograft. The tumor-bearing mice (n=8) were treated orally with vehicle (ultra-pure water), or Compound A succinate (50 or 100 mg/kg) once daily for 21 days. As a positive control chemotherapy 5-FU (15 mg/kg) was given intraperitoneally. […] 5-FU was also effective with a T/C=47.2% (Table 7).

[16] = Pharmacokinetic study of Compound A succinate in cynomolgus monkeys; assay type: in vivo; details: for AUC(0-inf) / AUC(0-t) / Cmax / clearance / half-life / Vd: cynomolgus monkey, plasma; for Vd: read-out: Vz; for F: succinate
Protocol: In a separate study, four cynomolgus monkeys were divided into two groups (n=2 per group), and given Compound A succinate at 2 mg/kg by i.v. and 24 mg/kg by i.g., respectively. The plasma samples were collected, analyzed and PK parameters were calculated as above.

[17] = iv, i.v. 2 mg/kg, female cynomolgus monkeys
[18] = iv, i.v. 2 mg/kg, male cynomolgus monkeys
[19] = po, i.g. 24 mg/kg, female cynomolgus monkeys
[20] = po, i.g. 24 mg/kg, male cynomolgus monkeys

For `CCN1CCN(Cc2ccc(Nc3ncc(F)c(-c4sc(NC5CCCC5)nc4C)n3)nc2)CC1.O=C(O)CCC(=O)O` [Compound A succinate, N-Cyclopentyl-5-(2-((5-((4-ethylpiperazin-1-yl)methyl)pyridin-2-yl)amino)-5-fluoropyrimidin-4-yl)-4-methylthiazol-2-amine succinate], the “solubility compared to Compound A free base” value ([1]; both FaSSIF and water) was “significantly increased”, the solubility at 1 h ([1]; FaSSIF) was 8200 µg/mL and the solubility at 2 h ([1]; FaSSIF) was 8100 µg/mL. It also gave a solubility at 4 h ([1]; FaSSIF) of 8100 µg/mL, a solubility at 24 h ([1]; FaSSIF) of 1100 µg/mL and a solubility at 1 h ([1]; water, H2O) of 2000 µg/mL. The solubility at 2 h ([1]; water, H2O) was 2000 µg/mL, the solubility at 4 h ([1]; water, H2O) was 2100 µg/mL and the solubility at 24 h ([1]; water, H2O) was 2300 µg/mL. For the same compound, the Purity ([2]; 25° C./60% RH) was 97.9 area %, the Relative purity ([2]; 25° C./60% RH) was 100.0 % of initial and the Purity ([2]; 40° C./75% RH) was 97.9 area %. The Relative purity ([2]; 40° C./75% RH) was 100.0 % of initial, the “Moisture absorbed at 25° C./80% RH” value [3] was 1.1% and the Hygroscopicity ([3]; listed as Succinate) was “Slightly hygroscopic”. For the same compound, the Hygroscopicity [3] was “minimal hygroscopicity”, the IC50 [4] was 42.6 nM and the IC50 [5] was 839 nM. For the same compound, the IC50 [6] was 812 nM, the IC50 [7] was 35.7 nM and the IC50 [8] was 37.3 nM. It also gave an IC50 [9] of 812 nM, an IC50 [10] of 608 nM and an IC50 [11] of 260 nM. The IC50 [12] was 88.8 nM, the IC50 [13] was 168 nM and the “Tumor volume (±S)” value ([14]; 62.5 mg/kg orally once a day) was 1789.5 ± 131.5 mm^3. The “Mean tumor growth inhibition (T/C)” value ([14]; 62.5 mg/kg orally once a day) was 44.8%, the “Tumor volume (±S)” value ([14]; 125 mg/kg orally once a day) was 1009.6 ± 87.0 mm^3 and the “Mean tumor growth inhibition (T/C)” value ([14]; 125 mg/kg orally once a day) was 70.8%. The “Tumor volume (±S)” value ([14]; 250 mg/kg orally once a day) was 546.4 ± 71.1 mm^3, the “Mean tumor growth inhibition (T/C)” value ([14]; 250 mg/kg orally once a day) was 86.2% and the “Tumor volume (±S)” value ([15]; 50 mg/kg orally once daily) was 941.10 ± 80.90 mm^3. For the same compound, the “Inhibition of tumor growth (T/C)” value ([15]; 50 mg/kg orally once daily, listed as compound A Succinate) was 36.26%, the “Inhibition of tumor growth (T/C)” value ([15]; 50 mg/kg orally once daily) was 36.3% and the “Tumor volume (±S)” value ([15]; 100 mg/kg orally once daily) was 443.72 ± 40.49 mm^3. For the same compound, the “Inhibition of tumor growth (T/C)” value ([15]; 100 mg/kg orally once daily, listed as compound A Succinate) was 74.69%, the “Inhibition of tumor growth (T/C)” value ([15]; 100 mg/kg orally once daily) was 74.7% and the AUC(0-inf) [16, 17] was 1190 ng·h/mL. The AUC(0-t) [16, 17] was 1170 ng·h/mL, the Cmax [16, 17] was 371 ng/mL and the clearance [16, 17] was 31 mL/min/kg. The half-life [16, 17] was 4.7 h, the Vd [16, 17] was 13.2 L/kg and the AUC(0-inf) [16, 18] was 872 ng·h/mL. For the same compound, the AUC(0-t) [16, 18] was 843 ng·h/mL, the Cmax [16, 18] was 240 ng/mL and the clearance [16, 18] was 39.1 mL/min/kg. It also gave a half-life [16, 18] of 5.3 h, a Vd [16, 18] of 17.7 L/kg and an AUC(0-inf) [16, 19] of 7740 ng·h/mL. For the same compound, the AUC(0-t) [16, 19] was 7700 ng·h/mL, the Cmax [16, 19] was 532 ng/mL and the half-life [16, 19] was 6 h. The AUC(0-inf) [16, 20] was 7420 ng·h/mL, the AUC(0-t) [16, 20] was 7370 ng·h/mL and the Cmax [16, 20] was 593 ng/mL. The half-life [16, 20] was 6 h, the F ([16]; i.g. 24 mg/kg, female cynomolgus monkeys) was 54.9% and the F ([16]; i.g. 24 mg/kg, male cynomolgus monkeys) was 72.8%.

Reference: US20230399325A1, “SUCCINATE AND CRYSTAL FORM THEREOF AS THERAPEUTICS” (AUCENTRA THERAPEUTICS PTY LTD, priority 2020, published 2023)
